Test results published in US6770261B2, “Magnetic resonance imaging agents for the detection of physiological agents” (Research Corporation Technologies, priority 1995, dated 2004).
Like-named read-outs stand apart in the source and are kept apart here.

Key:
[1] = for T1: 0.4 mM, 1 mM K2H2EGTA
Description: The effect of Mg^2+ on the relaxivity of the complex
The T1 of the Gd^3+-complex (0.4 mM in the buffer containing 132 mM KC1, 10 mM MOPS, 1 mM K2H2EGTA, pH 7.20) was measured.

[2] = for T1: 0.4 mM
Description: The effect of pH on the relaxivity of the complex
The T1 of the Gd3^+-complex (0.4 mM in the buffer containing 100 mM KC1, 10 mM MOPS, 2 mM K2H2EGTA or 2 mM K2CaEGTA) was measured under different pH.

[3] = Excerpt: FIG. 16 depicts the relaxivity of the CalGad complex as a function of calcium ion concentration.
The effect of Ca2^+ on the relaxivity of the complex

[4] = literature value used for comparison (Lauffer); cited from earlier work
[5] = Relaxivity R by NMR spectroscopy at 500 MHz; type: physicochemical; set-up: unit not given here
β-galactosidase [6] = biological target: T1, β-galactosidase (Escherichia coli, UniProt P00722)
T1 sequence (P00722 2-1024): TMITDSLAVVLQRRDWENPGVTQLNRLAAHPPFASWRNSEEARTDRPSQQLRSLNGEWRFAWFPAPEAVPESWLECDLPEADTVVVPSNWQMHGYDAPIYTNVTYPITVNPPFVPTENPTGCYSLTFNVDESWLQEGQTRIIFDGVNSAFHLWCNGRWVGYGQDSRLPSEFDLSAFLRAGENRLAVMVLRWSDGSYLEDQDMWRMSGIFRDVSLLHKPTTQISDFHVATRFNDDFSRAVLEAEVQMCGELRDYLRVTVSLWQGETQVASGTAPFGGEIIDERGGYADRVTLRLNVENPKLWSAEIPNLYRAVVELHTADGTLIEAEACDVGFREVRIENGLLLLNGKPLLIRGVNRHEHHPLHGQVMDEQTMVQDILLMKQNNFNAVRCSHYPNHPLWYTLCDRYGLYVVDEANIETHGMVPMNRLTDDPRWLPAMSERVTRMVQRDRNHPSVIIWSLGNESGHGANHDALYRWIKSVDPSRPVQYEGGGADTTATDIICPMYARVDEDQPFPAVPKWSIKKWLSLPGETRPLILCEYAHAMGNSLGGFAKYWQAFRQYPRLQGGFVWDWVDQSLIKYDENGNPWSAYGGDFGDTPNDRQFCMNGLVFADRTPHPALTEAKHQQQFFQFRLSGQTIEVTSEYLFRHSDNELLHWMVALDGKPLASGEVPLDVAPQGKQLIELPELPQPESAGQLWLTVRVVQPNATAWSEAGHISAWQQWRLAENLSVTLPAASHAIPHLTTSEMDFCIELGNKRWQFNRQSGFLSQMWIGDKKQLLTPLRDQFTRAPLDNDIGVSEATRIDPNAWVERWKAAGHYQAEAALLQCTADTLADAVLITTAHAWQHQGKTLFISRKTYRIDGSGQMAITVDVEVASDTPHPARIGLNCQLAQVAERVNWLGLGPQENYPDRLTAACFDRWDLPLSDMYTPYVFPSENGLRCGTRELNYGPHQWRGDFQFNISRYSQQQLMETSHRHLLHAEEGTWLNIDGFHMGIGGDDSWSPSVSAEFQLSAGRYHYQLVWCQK
Description: Characterization: The ability of β-galactosidase to remove the galactopyranosal blocking group from GadGal was examined by HPLC. The cleavage reaction was monitored using the distinct retention times of the complex and the complex without the galactopyranose residue.

β-galactosidase [7] = biological target: T1, β-galactosidase; conditions: for increase in signal (enhancement) in the presence of β-galactosidase: upon exposure to β-galactosidase
Description: FIG. 9 depicts the change in T1 observed upon the β-galactosidase catalyzed cleavage of the galactopyranose residue (n=3). The first Column of each pair (1,3,5) represents the T1 of the galactose-DOTA complex and β-galactosidase mixture immediately after addition. The second column represents the T1 of the solution after a period of time in the presence of β-galactosidase. Each column is reported as a ratio to a control containing only the complex. Column 1 and 2: 2.0 mM Gd complex plus 1.7 uM β-galactosidase phosphate buffer (25 mM) pH 7.3. Column 3 and 4: 2.0 mM Gd plus 5.1 uM β-galactosidase phosphate buffer (25 mM) pH 7.3. Column 5 and 6: 2 mM Gd complex plus 5.1 uM heat inactivated β-galactosidase (10 minutes at 80 degrees) phosphate buffer (25 mM) pH 7.3. […] A minimal concentration of enzyme was used in these experiments to reduce potential effects of any contrast agent-enzyme interactions. T1 were carried out using a Bruker AMX 500 spectrometer at 26 degrees using a standard inversion-recovery sequence. The solution was placed in a 40 ul round bottomed NMR tube insert (Wilmad glass) and inserted into a tube containing d3-chloroform. A two dimensional data file was collected containing 16 different inversion delays with 8 scans each. The raw nmr data was processed (Felix, BIOSYM/Molecular Simulations, San Diego, Calif.) and the peak heights were fitted to an exponential rise to a max to obtain T1.
The effect of the enzymatic cleavage of the galactopyranose on the T1 of the complex was assessed using NMR spectroscopy.
The effect of the enzymatic cleavage of the galactopyranose unit from EGadMe and CarboxyMe on relaxation time T1 was determined by NMR spectroscopy at 500 MHz and 24° C. Various aqueous solutions of 0.5 mM EGadMe and CarboxyMe, respectively, were prepared, containing either: (a) no enzyme; (b) heat inactivated 5 μM β-galactosidase that was treated at 80° C. for 10 min; (c) 5 μM β-galactosidase where T1 was measured immediately after mixing; or (d) 5 μM β-galactosidase that was reacted with the complex for 3.5 days at 37° C.

O=C([O-])CN1CCN(CCCOc2cccc(OCCOc3cccc(OCCCN4CCN(CC(=O)[O-])CCN(CC(=O)[O-])CCN(CC(=O)[O-])CC4)c3N(CC(=O)O)CC(=O)O)c2N(CC(=O)O)CC(=O)O)CCN(CC(=O)[O-])CCN(CC(=O)[O-])CC1.[Gd+3].[Gd+3] [CalGad, Gd^3+-BAPTA-DO3A2]
T1 ([1]; pH 7.20, Mg^2+ 0 mM): 607 ms | T1 ([1]; pH 7.20, Mg^2+ 1 mM): 602 ms | T1 ([1]; pH 7.20, Mg^2+ 2 mM): 601 ms | T1 ([1]; pH 7.20, Mg^2+ 5 mM): 609 ms | T1 ([1]; pH 7.20, Mg^2+ 10 mM): 607 ms | T1 ([1]; pH 7.20, Mg^2+ 20 mM): 610 ms | effect of changing Mg^2+ concentration on the relaxivity ([1]; Mg^2+ 0 to 20 mM): minimum effects | T1 ([2]; 2 mM K2CaEGTA, pH 6.80): 390 ms | T1 ([2]; 2 mM K2CaEGTA, pH 7.00): 393 ms | T1 ([2]; 2 mM K2CaEGTA, pH 7.20): 394 ms | T1 ([2]; 2 mM K2CaEGTA, pH 7.40): 397 ms | T1 ([2]; 2 mM K2H2EGTA, pH 6.80): 600 ms | T1 ([2]; 2 mM K2H2EGTA, pH 7.00): 605 ms | T1 ([2]; 2 mM K2H2EGTA, pH 7.20): 604 ms | T1 ([2]; 2 mM K2H2EGTA, pH 7.40): 608 ms | effect of changing pH on the relaxivity ([2]; pH 6.80 to 7.40, in the presence or absence of Ca^2+): minimum effects | relaxivity R ([3]; in the absence of Ca^2+): 3.03 mM⁻¹ s⁻¹ | relaxivity R ([3]; in the presence of Ca^2+): 5.53 mM⁻¹ s⁻¹

O=C([O-])CN1CCN(CC(=O)[O-])CCN(CC(=O)O)CCN(CC(=O)[O-])CC1.[Gd+3] [Gd-DOTA]
q (number of coordinating water molecules) [4]: 1.2

Do3a-hydroxyethyl-beta-galactose Gadolinium complex [GadGal]
relaxivity R [5]: 1800 | cleavage of galactopyranose (HPLC traces) (β-galactosidase [6]; incubated with β-galactosidase for 7 days, phosphate buffer pH 7.3): greater than 95% | enzymatic processing of the complex (HPLC) (β-galactosidase [6]; native vs heat-inactivated β-galactosidase): enzymatic processing of the complex by native but not heat-treated enzyme | difference between measured T1 values in the presence and absence of β-galactosidase (β-galactosidase [7]; 2.0 mM Gd complex, 1.7 or 5.1 uM β-galactosidase, pH 7.3, 500 MHz): 20% | change of solution T1 with heat inactivated enzyme (β-galactosidase [7]; control, heat inactivated β-galactosidase): no decrease | increase in signal (enhancement) in the presence of β-galactosidase (β-galactosidase [7]; listed as Example 1 compound): roughly 20% | increase in signal (enhancement) in the presence of β-galactosidase (β-galactosidase [7]; listed as galactose-DOTA structure of Example 1): ~20%
